Consider one compound from US20260000642A1 (Tay Therapeutics Limited, priority 2022, published 2026).

Structures are written as SMILES. Converted amounts (≈) assume the structure as drawn.

Data set [1] deals with T1, BRD4 BD2 (Homo sapiens, UniProt O60885).
T1 construct: HEK293 cells were transfected using NanoLuc-BRD4-BD1 or NanoLuc-BRD4-BD2 fusion vectors; host or cells: HEK293
Nature of the data set: NanoBRET bromodomain assay, NanoLuc-BRD4-BD2 fusion vector in HEK293 cells. The format is cell-based. As to conditions: NanoBRET, HEK293 cells, top concentration 10 μM. From the text: (§1) Bromodomain Assay Procedure

The target in data set [2] is T2, BRD4 BD1 (Homo sapiens, UniProt O60885).
T2 construct: HEK293 cells were transfected using NanoLuc-BRD4-BD1 or NanoLuc-BRD4-BD2 fusion vectors; host or cells: HEK293
Briefly: NanoBRET bromodomain assay, NanoLuc-BRD4-BD1 fusion vector in HEK293 cells. The format is cell-based. As to conditions: top concentration 10 μM.
Source text: as §1

The nature of data set [3]: Plasma stability assay, rat plasma. Type of data set: in vitro ADME. As to conditions: 37° C., Method 2 (10 μM). Here is the method:
Exemplary compounds of the disclosure are stable upon incubation in mouse plasma. Stability is expressed as a % remaining after 120 minutes. The experimental methods and results (Table 2) are provided hereinafter.
Plasma Stability Assay, Method 1
From stock solution of compound in 10 mM DMSO, a working solution of 1 mM is prepared by diluting the compound in DMSO. To 398 μL of plasma pre-warmed at 37° C. for 15 minutes), 2 μL of working solution of compound is added, resulting in a final concentration of 5 μM (0.5% DMSO) for the compound. The sample is then incubated at 37° C. Aliquot is withdrawn at specified time-points (0, 15, 30, 60 and 120 mins). The reaction is stopped by addition of 450 μL cold acetonitrile containing internal standard (IS). […] Aliquots of the supernatant is analysed using LC-MS/MS. The percent remaining of the compound at each time point is calculated with respect to the control sample (0 min time-point).
Plasma Stability Assay, Method 2
A working solution of compound (500 μM) is prepared in DMSO (100%). To 735 μL of plasma, 15 μL of working solution of compound is added—resulting in a final concentration of 10 μM (2% DMSO) for the compound. The sample is then incubated at 37° C. Aliquot is withdrawn at time-points—0, 15, 30, 60, 90 and 120 mins. The reaction is stopped by using chilled acetonitrile containing internal standard (IS). The samples are centrifuged and the supernatants analyzed using LC-MS/MS. The percent remaining of the compound at each time point is calculated with respect to the control sample (0 min time-point).

A short description of data set [4]: Thermodynamic solubility in FaSSIF pH 6.5 buffer. Type of data set: physicochemical. The settings on record: thermodynamic from solid, FaSSIF pH 6.5, 25° C., Method 2 (LCMS). An excerpt:
BET protein inhibitors with a high aqueous solubility are in some embodiments promising oral drug candidates. Some of the exemplary compounds of the current disclosure have high solubility (measured in μM) in Fasted State Simulated Intestinal Fluid (FaSSIF) pH 6.5 buffer. The experimental methods and results (Table 4) are provided hereinafter.
Thermodynamic Solubility Assay, Method 1
FaSSIF v2 buffer is freshly prepared prior to use according to the suppliers' instructions and the pH adjusted to 6.5 using 1 M NaOH or 1 M HCl as required. From 1 mM working solution of test compound in DMSO, the λmax of the test compound is determined by scanning from 200 nm to 700 nm, in 1 nm steps with an EPOCH UV/Visible spectrophotometer (Biotek Instruments Inc.). A 12-point standard curve of compound concentration versus absorption at λmax is generated via two-fold serial dilutions of the 1 mM working solution with DMSO. Approximately 1 mg of test compound is accurately weighed into an Eppendorf tube and the appropriate volume of FaSSIF buffer is added to make a nominal concentration of 1 mg/mL. […]
FaSSIF buffer was prepared according to the suppliers' instructions and the pH adjusted to 6.5 using 1 M NaOH or 1 M HCl as required. […] The concentration of the test compound in the filtrate was determined by LCMS analysis with reference to the internal standards to determine the solubility in the buffer.

Regarding `CNC(=O)c1[nH]c(C(=O)NC2CCC(O)CC2)cc1OC(C)c1ccc(Cl)cc1` (single isomer, unassigned) [Example 29, 3-(1-(4-chlorophenyl)ethoxy)-N^5-(4-hydroxycyclohexyl)-N^2-methyl-1H-pyrrole-2,5-dicarboxamide], the figures for the IC50 in data set [1] and in data set [2] were 50 to 200 nM and at least 10000 nM, respectively. Moreover, in data set [3], the “Plasma Stability (% remaining at 120 minutes) Rat” value stood at 89%. In addition, the solubility (thermodynamic) in data set [4] was 1230 µM (≈ 516 µg/mL).
